Source: US5191079A, “Quinolinecarboxylic acid derivatives” (priority 1990, dated 1993)
≈ marks a conversion by molar mass, not a printed value. Counter-ions that a name gives are not always drawn. Like-named read-outs stand apart in the source and are kept apart here.

What was measured:
[1] = test system: Staphylococcus epidermidis IAM 1296; assay: MIC, Experiment 1; type: cell-based; conditions: IAM1296, S. epidermidis IAM 1296, Gram +, read-out: Min. inhib. concentr. (MIC)
Protocol: The compounds of the present invention ([…] and Q) were each dissolved in dimethylsulfoxide to prepare a solution of 5000 μg/ml in concentration. The compounds of the present invention (I, J and K) and the known compound (Y) were each dissolved in sterilized distilled water to prepare a solution of 5000 μg/ml in concentration. […] The test was carried out by a method as appointed by Japan Society of Chemotherapy [cf. Chemotherapy, 29, 76-79 (1981), TOKYO]. As to Streptococcus pneumoniae and Streptococcus pyogenes, Brain heart infusion broth (manufactured by DIFCO) was used as the medium for the preculture thereof, and a heart infusion agar medium containing 5% defibrinated horse blood (manufactured by Nissui Seiyaku K. K., Japan) was used as the medium for the measurement of minimum inhibitory concentration (MIC). As to other microorganisms, a sensitivity test broth (manufactured by Nissui Seiyaku K. K.) was used as the medium for the preculture thereof, and a sensitivity test agar medium (manufactured by Nissui Seiyaku K. K.) was used as the medium for the measurement of MIC.

[2] = test system: clinically isolated Enterococcus faecalis; assay: In vitro antibacterial activity against clinical isolates, Experiment 2; type: cell-based
In short: (§1)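 Agar-based MIC determination used clinical strains isolated between late 1988 and mid-1989, precultured in sensitivity test broth; compound standard solutions (stock) were 1000 μg/ml in sterile distilled water.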

[3] = test system: clinically isolated Enterococcus faecium; assay: as above; type: cell-based
In short: as §1

[4] = test system: clinically isolated Staphylococcus epidermidis; assay: as above; type: cell-based; conditions: for MIC / MIC50 / MIC90: Staphylococcus epidermidis
In short: as §1

[5] = test system: Staphylococcus aureus IID 803; assay: Effect on treatment of general infectious disease (systemic infection in mice), Experiment 3; type: in vivo, Staphylococcus aureus; ddY male mice; conditions: for protective effects against infection: Experiment 3, in words; for ED50: Staphylococcus aureus, IID803, 168 h, oral, 1 h after i.p. infection, mice, survival after one week, average of several tests, read-out: 50% effective dose (ED50)
Protocol: Staphylococcus aureus IID 803
The test microorganism was subjected to standing culture in Brain heart infusion broth (manufactured by DIFCO) at 37° C. for 16 to 18 hours. The culture was then diluted with PBS (Dulbecco's phosphate buffered saline) to adjust the concentration of bacteria to 4×10^7 -8×10^7 CFU/ml. The mixture was mixed with an equivalent amount of 10% (w/v) Mucin (BACTO MUCIN BACTERIOLOGICAL, manufactured by Difco Co.) to prepare a bacterial suspension. The thus prepared bacterial suspension (0.5 ml each) was intraperitoneally inoculated to ddY male mice (5 weeks age, weighing 24-27 g, 5 mice in each group), to infect the animals, by which systemic infectious model was prepared.
The mice were daily observed for one week, and from the survival number of mice after one week, the 50% effective dose (ED50) was calculated by Weil method. This test was repeated several times and the average of ED50 was calculated.

[6] = Acute toxicity, Experiment 5; type: in vivo; conditions: oral, 2000 mg/kg, one week
Protocol: The compound (A) or (B) of the present invention was suspended in distilled water to prepare a suspension in concentration of 200 mg/ml and the compound (C) was suspended in distilled water to prepare a suspension in concentration of 100 mg/ml. The suspension was orally administered to ddY male mice (5 weeks age, weighing 19 to 24 g, 5 mice in each group), which had been fasted for 18 hours, at a rate of 2000 mg/kg body weight of the test compound.

[7] = 25 clinical strains E. faecalis
[8] = 25 clinical strains E. faecalis, 50% of strains, read-out: MIC50
[9] = 25 clinical strains E. faecalis, 90% of strains, read-out: MIC90
[10] = 25 clinical strains E. faecium, 50% of strains, read-out: MIC50
[11] = 25 clinical strains E. faecium, 90% of strains, read-out: MIC90
[12] = 25 clinical strains S. epidermidis
[13] = 25 clinical strains S. epidermidis, 50% of strains, read-out: MIC50
[14] = 25 clinical strains S. epidermidis, 90% of strains, read-out: MIC90

Compound	MIC [1] [µg/mL]	MIC [2, 7] [µg/mL]	MIC50 [2, 8] [µg/mL]	MIC90 [2, 9] [µg/mL]	MIC ([3]; 25 clinical strains E. faecium) [µg/mL]	MIC50 [3, 10] [µg/mL]	MIC90 [3, 11] [µg/mL]	MIC [4, 12] [µg/mL]	MIC50 [4, 13] [µg/mL]	MIC90 [4, 14] [µg/mL]	protective effects against infection [5]	ED50 [5] [mg/kg]	death of mice [6]	MIC90 [2] [µg/mL]	MIC50 [3] [µg/mL]	MIC90 [3] [µg/mL]	MIC90 [4] [µg/mL]	MIC50 [2] [µg/mL]	MICrange [4, 12] [µg/mL]	MIC50 [4] [µg/mL]
CN1Cc2csc3c(C(=O)O)c(=O)c4cc(F)c(N5CCOC(CF)C5)c1c4n23 (stereo not drawn) [Compound (C), 9,1-(Methylimino)methano-7-fluoro-8-(2-fluoromethylmorpholino)-5-oxo-5H-thiazolo[3,2-a]quinoline-4-carboxylic acid]	0.025 (≈ 0.0593 µM)	0.05 to 3.13 (≈ 0.119 to 7.43 µM)	0.1 (≈ 0.237 µM)	3.13 (≈ 7.43 µM)	0.05 to 6.25 (≈ 0.119 to 14.8 µM)	0.78 (≈ 1.85 µM)	3.13 (≈ 7.43 µM)	0.006 to 0.39 (≈ 0.0142 to 0.925 µM)	0.013 (≈ 0.0308 µM)	0.39 (≈ 0.925 µM)	excellent protective effects against infection	1.9	no death of mice was observed							
CN1Cc2csc3c(C(=O)O)c(=O)c4cc(F)c(N5CCN6CCOC[C@H]6C5)c1c4n23 [Compound (F), 9,1-(Methylimino)methano-7-fluoro-8-[(6R)-1,8-diaza-4-oxabicyclo[4.4.0]deca-8-yl]-5-oxo-5H-thiazolo[3,2-a]quinoline-4-carboxylic acid]	0.05 (≈ 0.112 µM)	0.05 to 6.25 (≈ 0.112 to 14.1 µM)	0.2 (≈ 0.45 µM)		0.2 to 6.25 (≈ 0.45 to 14.1 µM)			0.013 to 1.56 (≈ 0.0292 to 3.51 µM)	0.05 (≈ 0.112 µM)		excellent protective effects against infection	2.3		6.25 (≈ 14.1 µM)	1.56 (≈ 3.51 µM)	6.25 (≈ 14.1 µM)	0.78 (≈ 1.75 µM)			
CN1Cc2csc3c(C(=O)O)c(=O)c4cc(F)c(N5CCOC(CCl)C5)c1c4n23 (stereo not drawn) [Compound (D), 9,1-(Methylimino)methano-7-fluoro-8-(2-chloromethylmorpholino)-5-oxo-5H-thiazolo[3,2-a]quinoline-4-carboxylic acid]	0.025 (≈ 0.0571 µM)	0.05 to 3.13 (≈ 0.114 to 7.15 µM)	0.2 (≈ 0.457 µM)	1.56 (≈ 3.56 µM)	0.05 to 3.13 (≈ 0.114 to 7.15 µM)		3.13 (≈ 7.15 µM)	0.006 to 0.39 (≈ 0.0137 to 0.891 µM)	0.013 (≈ 0.0297 µM)	0.2 (≈ 0.457 µM)					0.39 (≈ 0.891 µM)					
COC[C@H]1CN(c2c(F)cc3c(=O)c(C(=O)O)c4scc5n4c3c2N(C)C5)CCO1 [Compound (P), 9,1-(Methylimino)methano-7-fluoro-8-[(2R)-2-methoxymethylmorpholino)-5-oxo-5H-thiazolo[3,2-a]quinoline-4-carboxylic acid]	0.05 (≈ 0.115 µM)	0.1 to 6.25 (≈ 0.231 to 14.4 µM)	0.2 (≈ 0.461 µM)		0.2 to 12.5 (≈ 0.461 to 28.8 µM)		12.5 (≈ 28.8 µM)	0.006 to 0.78 (≈ 0.0138 to 1.8 µM)	0.05 (≈ 0.115 µM)	0.39 (≈ 0.9 µM)				6.25 (≈ 14.4 µM)	3.13 (≈ 7.22 µM)					
CN1CCN(c2c(F)cc3c(=O)c(C(=O)O)c4scc5n4c3c2OC5)CC1 [Compound (Y), 9,1-Epoxymethano-7-fluoro-8-(4-methyl-1-piperazinyl)-5-oxo-5H-thiazolo[3,2-a]quinoline-4-carboxylic acid hydrochloride, reference compound]	0.39	0.2 to 6.25			0.39 to 12.5		6.52		0.1	12.5		10.8		6.25	3.13			0.39	0.025 to 25	
CC1CN(c2c(F)cc3c(=O)c(C(=O)O)c4scc5n4c3c2N(C)C5)CCO1 (stereo not drawn) [Compound (A), 9,1-(Methylimino)methano-7-fluoro-8-(2-methylmorpholino)-5-oxo-5H-thiazolo[3,2-a]quinoline-4-carboxylic acid]	0.05 (≈ 0.124 µM)	0.025 to 3.13 (≈ 0.062 to 7.76 µM)	0.1 (≈ 0.248 µM)	3.13 (≈ 7.76 µM)	0.05 to 6.25 (≈ 0.124 to 15.5 µM)	0.78 (≈ 1.93 µM)	3.13 (≈ 7.76 µM)	0.006 to 0.39 (≈ 0.0149 to 0.967 µM)	0.013 (≈ 0.0322 µM)	0.2 (≈ 0.496 µM)	excellent protective effects against infection	3.5	no death of mice was observed							
COC[C@@H]1CN(c2c(F)cc3c(=O)c(C(=O)O)c4scc5n4c3c2N(C)C5)CCO1 [Compound (O), 9,1-(Methylimino)methano-7-fluoro-8-[(2S)-2-methoxymethylmorpholino)-5-oxo-5H-thiazolo[3,2-a]quinoline-4-carboxylic acid]	0.05 (≈ 0.115 µM)	0.05 to 3.13 (≈ 0.115 to 7.22 µM)	0.2 (≈ 0.461 µM)	3.13 (≈ 7.22 µM)	0.1 to 12.5 (≈ 0.231 to 28.8 µM)			0.006 to 0.78 (≈ 0.0138 to 1.8 µM)	0.05 (≈ 0.115 µM)	0.39 (≈ 0.9 µM)					3.13 (≈ 7.22 µM)	6.25 (≈ 14.4 µM)				
CCOCC1CN(c2c(F)cc3c(=O)c(C(=O)O)c4scc5n4c3c2N(C)C5)CCO1 (stereo not drawn) [Compound (Q), 9,1-(Methylimino)methano-7-fluoro-8-(2-ethoxymethylmorpholino)-5-oxo-5H-thiazolo[3,2-a]quinoline-4-carboxylic acid]	0.1 (≈ 0.223 µM)	0.05 to 6.25 (≈ 0.112 to 14 µM)			0.2 to 25 (≈ 0.447 to 55.9 µM)		12.5 (≈ 27.9 µM)	0.006 to 0.78 (≈ 0.0134 to 1.74 µM)		0.39 (≈ 0.872 µM)				6.25 (≈ 14 µM)	3.13 (≈ 6.99 µM)			0.39 (≈ 0.872 µM)		0.025 (≈ 0.0559 µM)
COCC1CN(c2c(F)cc3c(=O)c(C(=O)O)c4scc5n4c3c2N(C)C5)CCN1C (stereo not drawn) [Compound (J), 9,1-(Methylimino)methano-7-fluoro-8-(3-methoxymethyl-4-methyl-1-piperazinyl)-5-oxo-5H-thiazolo[3,2-a]quinoline-4-carboxylic acid hydrochloride]	0.2	0.2 to 12.5		12.5	0.39 to 25		12.5	0.05 to 6.25	0.1	3.13	excellent protective effects against infection	4.4			3.13			0.39		
CN1Cc2csc3c(C(=O)O)c(=O)c4cc(F)c(N5CCC(N(C)C)CC5)c1c4n23 [Compound (H), 9,1-(methylimino)methano-7-fluoro-8-(4-dimethylaminopiperidino)-5-oxo-5H-thiazolo[3,2-a]quinoline-4-carboxylic acid]	0.2 (≈ 0.465 µM)	0.2 to 6.25 (≈ 0.465 to 14.5 µM)		3.13 (≈ 7.27 µM)	0.2 to 25 (≈ 0.465 to 58.1 µM)		12.5 (≈ 29 µM)	0.05 to 3.13 (≈ 0.116 to 7.27 µM)	0.05 (≈ 0.116 µM)	3.13 (≈ 7.27 µM)					1.56 (≈ 3.62 µM)			0.39 (≈ 0.906 µM)		
